For assay [1], the target named is T1, USP7 (Homo sapiens, UniProt Q93009, C315A).
T1 construct: 0.25 nM His-His-USP7 (aa208-560, |C315A|) was incubated with compound; His-His (N)
Nature of the assay: Inhibition of USP7 by Fluorescence Intensity (FLINT) readings, Ubiquitin-Rhodamine-110 substrate. The conditions noted are these: 0.25 nM His-His-USP7 (aa208-560), 60 minutes at 30° C. preincubation; Ki determined from IC50 according to Cer et al. It is filed as biochemical. A digest of the protocol: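 His-tagged USP7 (aa208-560, C315A), 0.25 nM, preincubated with compound 60 min at 30 °C in 100 mM Bicine pH 8.0, 0.01% Triton X-100, 1 mM TCEP, 10% DMSO. Ubiquitin-Rhodamine-110 (50 nM or 4 μM) added; kinetic fluorescence (Ex 485/Em 535 nm) over 21 min; IC50 from 11-point curves, Ki derived from IC50.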

Assay [2] deals with Z138 mantle cell lymphoma tumour cell lines. Nature of the assay: In vitro cytotoxicity, MTT assay. Conditions: Homo sapiens, Z-138; Z138 cells, exposed to the test compounds for 96 hours. It is filed as cell-based. As to the method: The cytotoxicity studies were evaluated by MTT [3-(4,5-dimethylthiaxol-2-yl)-2,5-diphenyltetrazolium bromide|assay and carried out on Z138 mantle cell lymphoma tumour cell lines. The cells are distributed onto microplates and exposed to the test compounds for 96 hours. MTT is then added for 4 hours and converted by NAD(P)H-dependent cellular oxidoreductase enzymes in forma/an, which has a purple color. The viable cell number is proportional to the production of formazan salts and cell viability can be quantified by the absorbance of the solution at 540 nm with a spectrophotometer (Carmichael et al., Cancer Res. 1987, 47, 936-942).
(In general: Tetrazolium dyes change colour on reduction, which living cells bring about.)

T1 sequence (Q93009 208-560 C315A): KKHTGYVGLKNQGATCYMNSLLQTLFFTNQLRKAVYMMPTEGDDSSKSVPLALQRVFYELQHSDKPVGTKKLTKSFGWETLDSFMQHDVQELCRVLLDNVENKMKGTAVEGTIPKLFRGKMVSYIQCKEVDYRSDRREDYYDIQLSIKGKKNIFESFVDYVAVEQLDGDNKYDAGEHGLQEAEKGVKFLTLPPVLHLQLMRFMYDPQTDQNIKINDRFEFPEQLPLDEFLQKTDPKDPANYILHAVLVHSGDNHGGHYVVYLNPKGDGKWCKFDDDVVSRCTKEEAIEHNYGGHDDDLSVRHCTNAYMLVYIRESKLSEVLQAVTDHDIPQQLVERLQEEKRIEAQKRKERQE

What is called Ki is a measure of affinity in units of concentration, obtained from inhibition or displacement. A higher Ki goes with lower affinity. The IC50 is the concentration needed to halve the response being measured. A higher IC50 goes with a need for much substance. In assay [1], `COc1ccc(NC(=O)N2CC[C@@H](C(=O)N3CCC(O)(Cn4cnc(Oc5ccc(F)cc5)c(N)c4=O)CC3)[C@H](c3ccccc3)C2)cc1` [Example 80] returned a Ki of 19 nM. Besides, the IC50 in assay [2] turned out to be 6.2 nM.
As for `Nc1c(Oc2ccc(F)cc2)ncn(CC2(O)CCN(C(=O)[C@@H]3CCN(Cc4ccccc4F)C[C@H]3c3ccccc3)CC2)c1=O` [Example 52, 5-amino-6-(4-fluorophenoxy)-3-[(1-((3R,4R)-1-[(2-fluorophenyl)methyl]-3-phenylpiperidine-4-carbonyl}-4-hydroxypiperidin-4-yl)methyl]pyrimidin-4(3H)-one], in assay [1], the Ki came to 13 nM. Further, half-maximal inhibition in assay [2] (IC50) required 5.4 nM.
In assay [1], `Cc1ccc(-c2nc(C)c(C(=O)N3CC[C@@H](C(=O)N4CCC(O)(Cn5cnc(Oc6ccccc6)c(N)c5=O)CC4)[C@H](c4ccccc4)C3)s2)cn1` [Example 46, 5-amino-3-[(4-hydroxy-1-((3R,4R)-1-[4-methyl-2-(6-methylpyridin-3-yl)-1,3-thiazole-5-carbonyl]-3-phenylpiperidine-4-carbonyl)piperidin-4-yl)methyl)-6-phenoxypyrimidin-4(3H)-one] came in with a Ki of 2.9 nM. In assay [2], this compound had a concentration for half-maximal inhibition (IC50) of 3.1 nM.
In assay [1], `Cc1cc(Cl)cc(C(=O)N2CC[C@@H](C(=O)N3CCC(O)(Cn4cnc(Oc5ccc(F)cc5)c(N)c4=O)CC3)[C@H](c3ccccc3)C2)c1` [Example 162] yielded an inhibitory constant (Ki) of 12.7 nM. Moreover, in assay [2], 3.72 nM corresponded to half-maximal inhibition (IC50).
The matching figures for `Cc1nc(-c2ccc(C(F)(F)F)nc2)sc1C(=O)N1CC[C@@H](C(=O)N2CC[C@](O)(Cn3cnc(Oc4ccc(F)cc4)c(N)c3=O)C(F)(F)C2)[C@H](c2ccccc2)C1` [Example 103]: 6.4 nM and 6.63 nM.
In assay [1], `Cc1ccc(-c2ncc(CN3CC[C@@H](C(=O)N4CC[C@](O)(Cn5cnc(Oc6ccc(F)cc6)c(N)c5=O)C(F)(F)C4)[C@H](c4ccccc4)C3)s2)cn1` [Example 53] returned an inhibitory constant (Ki) of 6.6 nM. The IC50 in assay [2] stood at 3.4 nM.
In assay [1], `Cc1cncc(CN2CC[C@@H](C(=O)N3CC[C@](O)(Cn4cnc(Oc5ccc(F)cc5)c(N)c4=O)C(F)(F)C3)[C@H](c3ccccc3)C2)n1` [Example 207, 5-amino-3-[[(4S)-3,3-difluoro-4-hydroxy-1-[(3R,4R)-1-[(6-methylpyrazin-2-yl)methyl]-3-phenyl-piperidine-4-carbonyl]-4-piperidyl]methyl]-6-(4-fluorophenoxy)pyrimidin-4-one] displayed an inhibition constant (Ki) of 27.4 nM. The compound further registered an IC50 in assay [2] of 11.8 nM.
On to `Cc1ccc(-c2ncc(CN3CC[C@@H](C(=O)N4CCC(O)(Cn5cnc(Oc6ccc(F)cc6)c(N)c5=O)CC4)[C@H](c4ccccc4)C3)s2)cn1` [Example 51, 5-amino-6-(4-fluorophenoxy)-3-({4-hydroxy-1-[(3R,4R)-1-{{2-(6-methylpyridin-3 yl)-1,3-thiazol-5-yl]methyl}-3-phenylpiperidine-4-carbonyl]piperidin-4-yl}methyl)pyrimidin-4(3H)-one], for which affinity in assay [1] was put at a Ki of 2.6 nM. The same compound had an IC50 in assay [2] of 1.4 nM.
Turning to `Nc1c(Oc2ccc(F)cc2)ncn(CC2(O)CCN(C(=O)[C@@H]3CCN(C(=O)c4cncc(Cl)c4)C[C@H]3c3ccccc3)CC2)c1=O` [Example 133, 5-amino-3-[[1-[(3R,4R)-1-(5-chloropyridine-3-carbonyl)-3-phenyl-piperidine-4-carbonyl]-4-hydroxy-4-piperidyl]methyl]-6-(4-fluorophenoxy)pyrimidin-4-one], the Ki in assay [1] was determined as 1.52 nM. Also, the IC50 in assay [2] amounted to 9.8 nM.
For `Cc1nc(C2CCCN(C)C2)sc1C(=O)N1CC[C@@H](C(=O)N2CCC(O)(Cn3cnc(Oc4ccc(F)cc4)c(N)c3=O)CC2)[C@H](c2ccccc2)C1` (stereo partly drawn) [Example 199, 5-amino-6-(4-fluorophenoxy)-3-[[4-hydroxy-1-[(3R,4R)-1-[4-methyl-2-(1-methyl-3-piperidyl)thiazole-5′-carbonyl]-3-phenyl-piperidine-4-carbonyl]-4-piperidyl]methyl]pyrimidin-4-one], in that order: 9.23 nM and 34.1 nM.
In assay [1], `COc1cc(Oc2ncn(C[C@@]3(O)CCN(C(=O)[C@@H]4CCN(Cc5cncc(C)n5)C[C@H]4c4ccccc4)CC3(F)F)c(=O)c2N)ccc1F` [Example 218, 5-amino-3-[[(4S)-3,3-difluoro-4-hydroxy-1-[(3R,4R)-1-[(6-methylpyrazin-2-yl)methyl]-3-phenyl-piperidine-4-carbonyl]-4-piperidyl]methyl]-6-(4-fluoro-3-methoxy-phenoxy)pyrimidin-4-one] yielded a Ki of 30.1 nM. Further, half-maximal inhibition in assay [2] (IC50) required 11.5 nM.
Take `Cc1ccc(-c2nc(C)c(C(=O)N3CC[C@@H](C(=O)N4CCC(O)(Cn5cnc(Oc6cccnc6)c(N)c5=O)CC4)[C@H](c4ccccc4)C3)s2)cn1` [Example 169]: the Ki in assay [1] came out at 3.47 nM. The IC50 in assay [2] is 16.6 nM.
Regarding `COc1cc(Oc2ncn(C[C@@]3(O)CCN(C(=O)[C@@H]4CCN(Cc5nccnc5C)C[C@H]4c4ccccc4)CC3(F)F)c(=O)c2N)ccc1F` [Example 219, 5-amino-3-[[(4S)-3,3-difluoro-4-hydroxy-1-[(3R,4R)-1-[(3-methylpyrazin-2-yl)methyl]-3-phenyl-piperidine-4-carbonyl]-4-piperidyl]methyl]-6-(4-fluoro-3-methoxy-phenoxy)pyrimidin-4-one], the affinity in assay [1] corresponds to a Ki of 30.3 nM. In assay [2], this compound displayed an IC50 of 23.4 nM.
The compound `Nc1c(Oc2ccc(F)cc2)ncn(CC2(O)CCN(C(=O)[C@@H]3CCN(Cc4cccnc4)C[C@H]3c3ccccc3)CC2)c1=O` [Example 62, 5-amino-6-(4-fluorophenoxy)-3-[(4-hydroxy-1-{(3R,4R)-3-phenyl-1-[(pyridin-3-yl)methyl]piperidine-4-carbonyl)piperidin-4-yl)methyl]pyrimidin-4(3H)-one] returned a Ki in assay [1] of 14 nM. Further, the IC50 in assay [2] came to 14 nM.
As for `COc1cc(Oc2ncn(C[C@@]3(O)CCN(C(=O)[C@@H]4CCN(Cc5nccc(C)n5)C[C@H]4c4ccccc4)CC3(F)F)c(=O)c2N)ccc1F` [Example 216], the affinity in assay [1] corresponds to a Ki of 25.7 nM. For the same compound, in assay [2], inhibition was half-maximal at 19.1 nM (IC50).
For `Nc1c(Oc2cccc(C(F)(F)F)c2)ncn(CC2(O)CCN(C(=O)[C@@H]3CCN(C(=O)c4sc(-c5ccc(C(F)(F)F)nc5)cc4F)C[C@H]3c3ccccc3)CC2)c1=O` [Example 124, 5-amino-3-[[1-[(3R,4R)-1-[3-fluoro-5-[16-(trifluoromethyl)-3-pyridyl]thiophene-2-carbonyl]-3-phenyl-piperidine-4-carbonyl]-4-hydroxy-4-piperidyl]methyl]-6-[3-(trifluoromethyl)phenoxy]pyrimidin-4-one], in that order: 12 nM and 31.5 nM.
For `Cc1nc(-c2ccc(N(C)C)nc2)sc1C(=O)N1CC[C@@H](C(=O)N2CCC(O)(Cn3cnc(Oc4cccc(C(F)(F)F)c4)c(N)c3=O)CC2)[C@H](c2ccccc2)C1` [Example 126], in that order: 4.44 nM and 29.5 nM.
For `Cc1nccnc1CN1CC[C@@H](C(=O)N2CC[C@](O)(Cn3cnc(Oc4ccc(F)cc4)c(N)c3=O)C(F)(F)C2)[C@H](c2ccccc2)C1` [Example 211, 5-amino-3-[[(4S)-3,3-difluoro-4-hydroxy-1-[(3R,4R)-1-[(3-methylpyrazin-2-yl)methyl]-3-phenyl-piperidine-4-carbonyl]-4-piperidyl]methyl]-4(4-fluorophenoxy)pyrimidin-4-one], in that order: 27.7 nM and 24.9 nM.
Regarding `CCOc1cccc(C(=O)N2CC[C@@H](C(=O)N3CCC(O)(Cn4cnc(Oc5ccc(F)cc5)c(N)c4=O)CC3)[C@H](c3ccccc3)C2)c1` [Example 55, 5-amino-3-({1-[(3R,4R)-1-(3-ethoxybenzoyl)-3-phenylpiperidine-4-carbonyl]-4-hydroxypiperidin-4-yl)methyl)-6-(4-fluorophenoxy)pyrimidin-4(3H)-one], in assay [1], the Ki came out at 15 nM. 12 nM corresponded to half-maximal inhibition in assay [2] (IC50).
Regarding `Nc1c(Oc2ccc(F)cc2)ncn(CC2(O)CCN(C(=O)[C@@H]3CCN(C4(c5cccc(C(F)(F)F)c5)COC4)C[C@H]3c3ccccc3)CC2)c1=O` [Example 152, 5-amino-6-(4-fluorophenoxy)-3-[[4-hydroxy-1-[(3R,4R)-3-phenyl-1-[3-[3-(trifluoromethyl)phenyl]oxetan-3-yl]piperidine-4-carbonyl]-4-piperidyl]methyl]pyrimidin-4-one], in assay [1], affinity was put at a Ki of 82 nM. In addition, in assay [2], the IC50 was found to be 202 nM.
For the compound `Nc1c(Oc2ccc(F)cc2)ncn(CC2(O)CCN(C(=O)[C@@H]3CCN(C4(c5ccccc5F)COC4)C[C@H]3c3ccccc3)CC2)c1=O` [Example 109], in assay [1], the Ki turned out to be 65 nM. Besides, the half-maximal inhibitory concentration (IC50) in assay [2] is 11 nM.
Take `Cc1ccc(-c2ncc(C(=O)N3CC[C@@H](C(=O)N4CCC(O)(Cn5cnc(Oc6ccc(F)cc6)c(N)c5=O)CC4)[C@H](c4ccccc4)C3)n2C)cn1` [Example 96, 5-amino-6-(4-fluorophenoxy)-3-[(4-hydroxy-1-{(3R,4R)-1-[1-methyl-2-(6-methylpyridin-3-yl)-1H-imidazole-5-carbonyl]-3-phenylpiperidine-4-carbonyl}piperidin-4-yl)methyl]pyrimidin-4(3H)-one]: in assay [1], the Ki was found to be 7.21 nM. Besides, the IC50 in assay [2] is 27.3 nM.
In the case of `Nc1c(Oc2ccc(F)cc2)ncn(CC2(O)CCN(C(=O)[C@@H]3CCN(S(=O)(=O)c4ccc(Br)s4)C[C@H]3c3ccccc3)CC2)c1=O` [Example 59], the Ki in assay [1] amounted to 35.8 nM. Besides, the IC50 in assay [2] amounted to 41.1 nM.

Source of the values: patent US20210355106A1, “NEW AMINO-PYRIMIDONYL-PIPERIDINYL DERIVATIVES, A PROCESS FOR THEIR PREPARATION AND PHARMACEUTICAL COMPOSITIONS CONTAINING THEM” (LES LABORATOIRES SERVIER, priority 2018, published 2021).
